Several values for one entry are separate records, joined by “and”; a condition that tells them apart may be missing. Identical values can stand only once.
Experiments:
Assay type in all cases: cell-based, human
[1] = tested on: DVL3 membrane recruitment by FZD6 in HEK293 cells; test: FZD6-dependent membrane recruitment of DVL3, immunofluorescence; parameters: key to Non-recruited (DVL3 membrane recruitment): number of cells out of 100 positive cells scored; details: Fig 8c
From the text: First, we analyzed the preferred subcellular localization of DVL3 (as introduced in Fig. 2c)[10],[14]. […] Next, we investigated if DVL3 conformation correlates with the capacity of DVL3 to be recruited by FZD6, a key Wnt receptor, to the plasma membrane. For this purpose, we co-expressed FZD6 and analyzed membrane recruitment of DVL3 in FZD6-positive cells by immunofluorescence. Individual cells were categorized as: not recruited (Fig. 8b, no DVL3 in the membrane), partially recruited (clear membrane as well as cytoplasmic localization), and fully recruited (predominantly plasma membrane localization, Fig. 8c, left). […] In the last readout we analyzed the capacity of DVL3 to activate downstream Wnt/β-catenin pathway monitored by TopFlash reporter assay (Fig. 8d). […] On the other hand, under conditions that favor the open conformation both activation as well as inhibition of the Wnt/β-catenin pathway was evident.
For immunofluorescence, cells were seeded (40,000 per well) on 24-well plates with gelatin-coated coverslips and transfected, as indicated, with 0.1 μg of each corresponding plasmid (0.3 μg of mCherry-FZD6) for 6 h. For western blotting and Dual Luciferase TopFlash/Renilla Reporter Assay, cells were seeded (60,000 per well) directly on 24-well plates with 0.1 μg of each corresponding plasmid (if not indicated otherwise) for 6 h. For coimmunoprecipitation, cells were seeded (4.4 × 10^6) on 10-cm dishes and transfected with 1 μg of each corresponding plasmid. The next day after seeding, cells were transfected using polyethyleneimine (PEI) in a stoichiometry of 6 μl of PEI per 1 μg of DNA for 6 h and were harvested 24 h after transfection. The following plasmids used in HEK293 cells have been described previously: FLAG-DVL3 wt[47], CK1ϵ wt[48], mCherry-FZD6 (ref. [37]), and dominant-negative CK1ϵ P3 (ref. [33]). The ECFP-DVL3 wt plasmid was made by Gateway Technology (via LR recombination according to the manufacturer’s instructions; Thermo Fisher Scientific, #11791020) from the donor plasmid pDONR221 DVL3 (DNASU, #FLH178665.01x) and the destination plasmid pdECFP (LMBP, #4548). The HA-DVL3 wt plasmid was made by Gateway Technology from the donor plasmid pDONR221 DVL3 (DNASU, #FLH178665.01x) and the destination plasmid pcDNA3.1 N-term HA (gift from Erich Nigg).
Cells were seeded on gelatin-coated coverslips in 24-well plates and were transfected the next day. Cells were fixed 24 h later in fresh 4% paraformaldehyde, permeabilized with 0.5% Triton X-100, blocked with PBS/BSA/Triton/Azide buffer (PBTA) [3% (wt/vol) BSA, 0.25% Triton, 0.01% NaN3] for 1 h, and incubated overnight with primary antibodies (in dilution 1:500) in PBTA at 4 °C. The next day, the coverslips were washed in PBS and incubated with secondary antibodies conjugated to Alexa Fluor 488 (Invitrogen A11001) or/and Alexa Fluor 594 (Invitrogen A11058) (all in dilution 1:1000), washed with PBS [in case of samples containing FLAG-DVL3 WT and derived variants stained with DAPI (1:5000)], and all coverslips were mounted on microscopic slides. Cells were then visualized on an Olympus IX51 fluorescent microscope using ×40 air or ×100 oil objectives and/or an Olympus Fluoview 500 confocal laser scanning microscope IX71 using ×100 oil objective. One hundred positive cells per experiment (n = 3) were analyzed and scored according to their phenotype into two/three categories (punctae/even); or non-recruited/partially/fully recruited for FZD6-dependent recruitment of DVL3. The antibodies used were as follows: anti-FLAG M2 (Sigma-Aldrich, #F1804), anti-DVL3 (Santa Cruz, #sc-8027), anti-CK1ɛ (Santa Cruz, #sc-6471), anti-RFP (Chromotek, #5h9) and anti-GFP (Fitzgerald, #20R-GR-011).

[2] = tested on: DVL3 subcellular localization in HEK293 cells; test: DVL3 subcellular localization (punctae/even), immunofluorescence
[3] = tested on: Wnt/β-catenin pathway; test: Dual Luciferase TopFlash/Renilla Reporter Assay; details: for TopFlash relative to ctrl (= 1): Suppl. Fig. 2a; for TopFlash FlAsH III (CK1e-/-), relative to ctrl (= 1): Suppl. Fig. 4f, CK1e-/- cells
Protocol: Cells were transfected 24 h after seeding with 0.1 μg of Super8X TopFlash construct, 0.1 μg of Renilla luciferase construct, and 0.1 μg of corresponding plasmids per well for 6 h in a 24-well plate. As for the ECFP-DVL3 FIII wt stable cell lines, transfection was followed by 4 h induction of tetracycline (1 µg/ml) and 8 h treatment of CM:DMEM (1:1 ratio). For performing this assay, Promega Dual Luciferase assay kit (Promega, #E1910) was used according to the manufacturer’s instructions. Luminescence was measured by a Hidex Bioscan Plate Chameleon Luminometer. Results are depicted as the ratio of TopFlash and Renilla signal (TopFlash fold induction), which was normalized for each experiment to certain control column (normalized TopFlash fold induction). Data were analyzed by MS Excel 2007 and GraphPad Prism 6 and results were shown as the means ± S.D. (number of experiments indicated ad hoc).

[4] = Fig 2c, DVL3-FLAG, 10 μM inhibitor, replicate 1, 100 cells
[5] = Fig 8b, ECFP-DVL3 wt, HEK293 wt, inhibitor, exp1-exp3, 100 cells each, listed as INH
[6] = sensor FlAsH III, replicate of grid row r5
[7] = sensor FlAsH III, replicate of grid row r6
[8] = sensor FlAsH III, replicate of grid row r7

## Nc1nccc(-c2c(-c3ccc(F)cc3)ncn2C2CCCCC2)n1 [PF670462, reference compound]
[1]; exp1
  Fully recruited (DVL3 membrane recruitment): 1
  Non-recruited (DVL3 membrane recruitment): 77
  Partially recruited (DVL3 membrane recruitment): 22
[1]; exp2
  Fully recruited (DVL3 membrane recruitment): 10
  Non-recruited (DVL3 membrane recruitment): 66
  Partially recruited (DVL3 membrane recruitment): 24
[1]; exp3
  Fully recruited (DVL3 membrane recruitment): 15
  Non-recruited (DVL3 membrane recruitment): 59
  Partially recruited (DVL3 membrane recruitment): 26
[2]; [4]
  Even (%): 1%
  Punctae (%): 99%
[2]; Fig 2c, DVL3-FLAG, 10 μM inhibitor, replicate 2, 100 cells
  Punctae (%): 98%
[2]; Fig 2c, DVL3-FLAG, 10 μM inhibitor, replicate 3, 100 cells
  Punctae (%): 99%
[2]; [5]
  Even (%): 5% and 11% and 8%
  Punctae (%): 95% and 89% and 92%
[3]; DVL3 wt + inhibitor, HEK293 cells, Fig 8d
  TopFlash/Renilla activation, in words: no (or negligible) TopFlash/Renilla activation
[3]; Fig 8d, replicate of grid row r4
  TopFlash relative to DVL3 wt (= 1): 0.13
[3]; Fig 8d, replicate of grid row r5
  TopFlash relative to DVL3 wt (= 1): 0.1
[3]; Fig 8d, replicate of grid row r6
  TopFlash relative to DVL3 wt (= 1): 0.2
[3]; sensor FlAsH I, replicate of grid row r5
  TopFlash relative to ctrl (= 1): 0.09288
[3]; sensor FlAsH I, replicate of grid row r6
  TopFlash relative to ctrl (= 1): 0.06555
[3]; sensor FlAsH I, replicate of grid row r7
  TopFlash relative to ctrl (= 1): 0.095
[3]; sensor FlAsH II, replicate of grid row r5
  TopFlash relative to ctrl (= 1): 0.04123
[3]; sensor FlAsH II, replicate of grid row r6
  TopFlash relative to ctrl (= 1): 0.0401
[3]; sensor FlAsH II, replicate of grid row r7
  TopFlash relative to ctrl (= 1): 0.09362
[3]; [6]
  TopFlash relative to ctrl (= 1): 0.07646
  TopFlash FlAsH III (CK1e-/-), relative to ctrl (= 1): 0.8229
[3]; [7]
  TopFlash relative to ctrl (= 1): 0.1238
  TopFlash FlAsH III (CK1e-/-), relative to ctrl (= 1): 0.6189
[3]; [8]
  TopFlash relative to ctrl (= 1): 0.1277
  TopFlash FlAsH III (CK1e-/-), relative to ctrl (= 1): 1.097
[3]; sensor FlAsH IV, replicate of grid row r5
  TopFlash relative to ctrl (= 1): 0.0466
[3]; sensor FlAsH IV, replicate of grid row r6
  TopFlash relative to ctrl (= 1): 0.04626
[3]; sensor FlAsH IV, replicate of grid row r7
  TopFlash relative to ctrl (= 1): 0.05626
